In PMC11862611 (RSC Medicinal Chemistry, 2025):

Target: T1, M4 (h) (antagonist radioligand) (Homo sapiens, UniProt P08173)
T1 construct: purchased Eurofins (contract assay); host or cells: cell membrane homogenates
T1 sequence (P08173 1-479): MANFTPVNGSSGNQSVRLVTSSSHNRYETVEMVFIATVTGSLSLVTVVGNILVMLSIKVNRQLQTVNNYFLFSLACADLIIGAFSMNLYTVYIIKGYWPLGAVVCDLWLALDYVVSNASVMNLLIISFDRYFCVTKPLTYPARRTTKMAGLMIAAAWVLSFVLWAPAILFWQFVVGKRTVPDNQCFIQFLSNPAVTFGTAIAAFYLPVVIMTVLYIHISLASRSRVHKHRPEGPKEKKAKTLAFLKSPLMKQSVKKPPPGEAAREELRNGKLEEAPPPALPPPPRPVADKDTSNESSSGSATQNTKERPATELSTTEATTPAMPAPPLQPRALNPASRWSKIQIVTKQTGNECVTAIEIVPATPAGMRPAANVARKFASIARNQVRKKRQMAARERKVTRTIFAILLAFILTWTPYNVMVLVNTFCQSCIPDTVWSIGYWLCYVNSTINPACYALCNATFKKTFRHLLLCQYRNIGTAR
Assay: radioligand displacement assay, M4
Format: binding
Experimental: 4.2.3.6. Radioligand Binding Assay (Supplemental Figure S3)
These assays were run by Eurofins under contract to LifeArc FR095-0011887. A representative protocol describing the human histamine H2 receptor (antagonist radioligand) assay is shown below.12 Cell membrane homogenates (24 µg protein) are incubated for 120 min at 22°C with 0.075 nM [125I]APT in the absence or presence of the test compound in a buffer containing 50 mM Na2HPO4/KH2PO4 (pH […]
7.4) and 0.05% BSA. […] Following

C[C@H]1CCCN1CCCO[C@H](c1ccccc1)c1ccc(Cl)cc1 [38l]
effective binding, radioligand displacement, M4: > 40%
